In ChEMBL document CHEMBL1201862, “PubChem BioAssay data set” (2004):
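Following 48 hours of exposure in 96-well plates, responses at five concentrations were used to interpolate endpoints linearly. Here, GI50 denotes the concentration required for 50% inhibition of growth.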 Active and inactive are the calls of the source. No stated cut-off is given here; in the data, active = GI50 up to about 1.1 µM and inactive = higher. Where a SMILES comes first, the peptide text is derived from it. [ ]: non-standard residue; d: D form. Hiv = CC(C)[C@H](O)C(=O)O

Tests used:
Assay in all cases: inhibition of tumour cell growth, NCI panel, 48 h
DU-145 = tested on: DU-145
OVCAR-4 = tested on: OVCAR-4
RXF 393 = tested on: RXF 393
SK-OV-3 = tested on: SK-OV-3
MCF7 = tested on: MCF7
T47D = tested on: T47D
UO-31 = tested on: UO-31
NCI-H23 = tested on: NCI-H23
SW-620 = tested on: SW-620
OVCAR-3 = tested on: OVCAR-3
Malme-3M = tested on: Malme-3M
SNB-19 = tested on: SNB-19
SK-MEL-5 = tested on: SK-MEL-5
NCI-H226 = tested on: NCI-H226
HCC 2998 = tested on: HCC 2998
HOP-92 = tested on: HOP-92
SN12C = tested on: SN12C
ACHN = tested on: ACHN
HCT-116 = tested on: HCT-116
SK-MEL-28 = tested on: SK-MEL-28

Row | Structure (SMILES) | GI50 (DU-145) | GI50 (OVCAR-4) | GI50 (RXF 393) | GI50 (SK-OV-3) | GI50 (MCF7) | GI50 (T47D) | GI50 (UO-31) | GI50 (NCI-H23) | GI50 (SW-620) | GI50 (OVCAR-3) | GI50 (Malme-3M) | GI50 (SNB-19) | GI50 (SK-MEL-5) | GI50 (NCI-H226) | GI50 (HCC 2998) | GI50 (HOP-92) | GI50 (SN12C) | GI50 (ACHN) | GI50 (HCT-116) | GI50 (SK-MEL-28)
1 | NC(Cc1ccccc1)C(=O)NC(Cc1ccccc1)NC(=O)C(Cc1c[nH]c2ccccc12)C(=O)O (stereo unspecified) | > 100 µM (inactive) | > 100 µM (inactive) | > 100 µM (inactive) | > 100 µM (inactive) | > 100 µM (inactive) | > 100 µM (inactive) | 51.9 µM (inactive) | > 100 µM (inactive) | > 100 µM (inactive) | > 100 µM (inactive) | > 100 µM (inactive) | > 100 µM (inactive) | 12 µM (inactive) | > 100 µM (inactive) | > 100 µM (inactive) | 34.8 µM (inactive) | > 100 µM (inactive) | > 100 µM (inactive) | > 100 µM (inactive) | > 100 µM (inactive)
2 | O=C(CSCC(=O)N/N=C/c1ccc(F)cc1)N/N=C/c1ccc(F)cc1 | > 100 µM (inactive) | > 100 µM (inactive) | 85.1 µM (inactive) | > 100 µM (inactive) | 46.6 µM (inactive) | > 100 µM (inactive) | 48.6 µM (inactive) | > 100 µM (inactive) | > 100 µM (inactive) |  | > 100 µM (inactive) | > 100 µM (inactive) | > 100 µM (inactive) | > 100 µM (inactive) | 66.8 µM (inactive) | > 100 µM (inactive) | > 100 µM (inactive) | > 100 µM (inactive) | > 100 µM (inactive) | > 100 µM (inactive)
3 | COc1cccc2c(=O)oc(-c3ccc(C(C)(C)C)cc3)nc12 | > 100 µM (inactive) | 53.6 µM (inactive) | 49.3 µM (inactive) | 80.9 µM (inactive) | 57 µM (inactive) | 80.4 µM (inactive) | > 100 µM (inactive) | > 100 µM (inactive) | 55.2 µM (inactive) | 29.9 µM (inactive) | > 100 µM (inactive) | > 100 µM (inactive) | 28.8 µM (inactive) |  | 0.447 µM (active) | 41.6 µM (inactive) | 96.8 µM (inactive) | > 100 µM (inactive) | 49.9 µM (inactive) | > 100 µM (inactive)
4 | CCCCCCCCCCCCCCCCCCOCC(CCP(=O)(CP(=O)(O)O)Oc1ccccc1)OCCCCCCCCCCCCCCCCCC (stereo unspecified) | > 100 µM (inactive) | > 100 µM (inactive) | > 100 µM (inactive) | > 100 µM (inactive) | > 100 µM (inactive) | > 100 µM (inactive) |  | > 100 µM (inactive) | > 100 µM (inactive) | > 100 µM (inactive) | > 100 µM (inactive) | > 100 µM (inactive) | > 100 µM (inactive) | > 100 µM (inactive) | > 100 µM (inactive) | > 100 µM (inactive) | > 100 µM (inactive) | > 100 µM (inactive) | > 100 µM (inactive) | > 100 µM (inactive)
5 | C/C=C\C(CC(=O)NCCc1c[nH]c2ccccc12)CC(=O)OC (stereo unspecified) | > 100 µM (inactive) | > 100 µM (inactive) | > 100 µM (inactive) | > 100 µM (inactive) | > 100 µM (inactive) | > 100 µM (inactive) | > 100 µM (inactive) | > 100 µM (inactive) | > 100 µM (inactive) | > 100 µM (inactive) | > 100 µM (inactive) | > 100 µM (inactive) | > 100 µM (inactive) |  | > 100 µM (inactive) | > 100 µM (inactive) |  | > 100 µM (inactive) | > 100 µM (inactive) | > 100 µM (inactive)
6 | Cc1ccc(NC(=O)c2cc(S(=O)(=O)Nc3n[nH]c(=O)n3-c3ccccc3)c(S)cc2Cl)cc1 | > 100 µM (inactive) | > 100 µM (inactive) | > 100 µM (inactive) | > 100 µM (inactive) | > 100 µM (inactive) | > 100 µM (inactive) | > 100 µM (inactive) | > 100 µM (inactive) | > 100 µM (inactive) | > 100 µM (inactive) | > 100 µM (inactive) | > 100 µM (inactive) | > 100 µM (inactive) | > 100 µM (inactive) | > 100 µM (inactive) | > 100 µM (inactive) | > 100 µM (inactive) |  | > 100 µM (inactive) | > 100 µM (inactive)
7 | CC(=O)Oc1ccc2oc(=O)cc(C)c2c1 | > 100 µM (inactive) | > 100 µM (inactive) | > 100 µM (inactive) |  | > 100 µM (inactive) | > 100 µM (inactive) | > 100 µM (inactive) | > 100 µM (inactive) | > 100 µM (inactive) | > 100 µM (inactive) | > 100 µM (inactive) | > 100 µM (inactive) | > 100 µM (inactive) | > 100 µM (inactive) | > 100 µM (inactive) | > 100 µM (inactive) | > 100 µM (inactive) | > 100 µM (inactive) | > 100 µM (inactive) | > 100 µM (inactive)
8 | ClCCc1ccccc1CC1=NCCc2ccccc21 | > 100 µM (inactive) | 43.5 µM (inactive) | 21.7 µM (inactive) | 44.7 µM (inactive) | 27.7 µM (inactive) | 21.9 µM (inactive) | 14.4 µM (inactive) | 21.5 µM (inactive) | 29.9 µM (inactive) | 28.8 µM (inactive) |  | 18.1 µM (inactive) | 22.8 µM (inactive) | 22.5 µM (inactive) | 25.1 µM (inactive) | 28.1 µM (inactive) | 40.7 µM (inactive) | 30.8 µM (inactive) | 32.5 µM (inactive) | 47.6 µM (inactive)
9 | Nc1nc(Cl)cc(NCC2(CO)CC(CCCc3ccccc3)C2)n1 (stereo unspecified) | > 100 µM (inactive) | > 100 µM (inactive) | > 47.1 µM (inactive) | 41.4 µM (inactive) | 0.0492 µM (active) | 2.31 µM (inactive) | 13.8 µM (inactive) |  | > 100 µM (inactive) | > 100 µM (inactive) | > 100 µM (inactive) | > 71.1 µM (inactive) | 0.31 µM (active) | > 100 µM (inactive) | > 100 µM (inactive) | 34 µM (inactive) | > 36.6 µM (inactive) | > 41.8 µM (inactive) |  | > 100 µM (inactive)
10 | CCOC(=O)c1sc2[n+](c1C)C(=O)/C(=C/c1ccc([N+](=O)[O-])cc1)S2 | 31.3 µM (inactive) | 56.5 µM (inactive) | 29.8 µM (inactive) | 23.8 µM (inactive) | 21.2 µM (inactive) | 25.5 µM (inactive) | 15 µM (inactive) | 16.1 µM (inactive) | 28.5 µM (inactive) | 9.08 µM (inactive) |  | 45.2 µM (inactive) | 38.8 µM (inactive) | 28.3 µM (inactive) | 17.2 µM (inactive) | > 100 µM (inactive) | 36.6 µM (inactive) | 30.6 µM (inactive) | 20.8 µM (inactive) | 27.4 µM (inactive)
11 | O=c1c(Cc2ccc(Cl)cc2)nnc2sc(-c3ccc(-c4ccc(F)c(Cl)c4)o3)nn12 | > 100 µM (inactive) | 42.1 µM (inactive) | > 100 µM (inactive) | > 100 µM (inactive) | 32.7 µM (inactive) | 80.2 µM (inactive) | 33.6 µM (inactive) | 44.5 µM (inactive) | 54.5 µM (inactive) |  | > 100 µM (inactive) | > 100 µM (inactive) | > 100 µM (inactive) | > 100 µM (inactive) | > 100 µM (inactive) | 58.7 µM (inactive) | 42.7 µM (inactive) | 35.7 µM (inactive) | 29.7 µM (inactive) | > 100 µM (inactive)
12 | O=C1c2cccc(O)c2C(=O)c2c(OC3OC(CO)C(O)C(O)C3O)cccc21 (stereo unspecified) | 32.2 µM (inactive) | 16.1 µM (inactive) | 26 µM (inactive) | 48.2 µM (inactive) | 30.1 µM (inactive) | 20.4 µM (inactive) | 35.2 µM (inactive) | 15.3 µM (inactive) | 16.9 µM (inactive) | 31.4 µM (inactive) | 6.12 µM (inactive) | 33.7 µM (inactive) | 16.5 µM (inactive) | > 100 µM (inactive) | 24.8 µM (inactive) | 73.8 µM (inactive) | 24.7 µM (inactive) | 61.7 µM (inactive) | 19.8 µM (inactive) | > 100 µM (inactive)
13 | CC(=O)Oc1ccc(/C=C/C(=O)O[C@@H](C(=O)O)[C@@H](OC(=O)/C=C/c2ccc(OC(C)=O)c(OC(C)=O)c2)C(=O)O)cc1OC(C)=O | > 100 µM (inactive) | > 100 µM (inactive) | > 100 µM (inactive) | > 100 µM (inactive) | > 100 µM (inactive) | > 100 µM (inactive) | > 100 µM (inactive) | > 100 µM (inactive) | > 100 µM (inactive) | > 100 µM (inactive) | > 100 µM (inactive) | > 100 µM (inactive) | > 100 µM (inactive) |  | > 100 µM (inactive) | > 100 µM (inactive) | > 100 µM (inactive) | > 100 µM (inactive) | > 100 µM (inactive) | > 100 µM (inactive)
14 | CC(C)[C@@H]1OC(=O)[C@@H](C)NC(=O)[C@@H]2CCCN2C1=O (cyclo([Hiv]-Pro-[dA])) | > 100 µM (inactive) | > 100 µM (inactive) | > 100 µM (inactive) | > 100 µM (inactive) | > 100 µM (inactive) | > 100 µM (inactive) |  | > 100 µM (inactive) | > 100 µM (inactive) | > 100 µM (inactive) | > 100 µM (inactive) | > 100 µM (inactive) | > 100 µM (inactive) | > 100 µM (inactive) | > 100 µM (inactive) | > 100 µM (inactive) | > 100 µM (inactive) | > 100 µM (inactive) | > 100 µM (inactive) | > 100 µM (inactive)
